Marks after values point to notes of the source that are not given here.
Experiments:
[1] = Body weight of mice recorded weekly; format: in vivo
Experimental: Four to five weeks old db/db mice (BKS.Cg-Dock7^m+/+Lepr^db/JNarl) and m/m mice (BKS.Cg-Dock7^m+/Dock7^m+) were obtained from National Laboratory Animal Center ([…], Taiwan). […] PMI Nutrition International, Brentwood, Mo.) and water ad libitum. […] The mouse body weight (bw) and the amounts of water and food intake were recorded weekly for the entire study period.

db/db mice = experiment: Oral glucose tolerance test (OGTT); format: in vivo; design: OGTT AUC: unit not given here
Experimental: Four to five weeks old db/db mice (BKS.Cg-Dock7^m+/+Lepr^db/JNarl) and m/m mice (BKS.Cg-Dock7^m+/Dock7^m+) were obtained from National Laboratory Animal Center ([…], Taiwan). […] PMI Nutrition International, Brentwood, Mo.) and water ad libitum. […] Blood was sampled from the tail vein, and FPG levels were measured and recorded as the basic blood glucose levels. […] The total area under the curve (AUC) in OGTT was plotted and calculated by the Area Under Coordinates Program (StatsToDo Server, Department of Obstetrics and Gynecology, Chinese University of Hong Kong).

C[C@@H](O)[C@H]1C(=O)N2C(C(=O)O)=C(S[C@@H]3CN[C@H](C(=O)Nc4cccc(C(=O)O)c4)C3)[C@H](C)[C@H]12 [DMH, ertapenem]
Body weight ([1]; Ex 2 G6 db/db, DMH i.p. 0.4 mg/g bw/day, dosing 6 weeks, week 7): 37.16 ± 0.93^b
Body weight ([1]; Ex 2 G6 db/db, DMH i.p. 0.4 mg/g bw/day, dosing 6 weeks, week 8): 38.67 ± 1.24^b
Body weight ([1]; Ex 2 G6 db/db, DMH i.p. 0.4 mg/g bw/day, dosing 6 weeks, week 9): 39.72 ± 1.36^bc
Body weight ([1]; Ex 2 G6 db/db, DMH i.p. 0.4 mg/g bw/day, dosing 6 weeks, week 10): 40.81 ± 1.34^b
Body weight ([1]; Ex 2 G6 db/db, DMH i.p. 0.4 mg/g bw/day, dosing 6 weeks, week 11): 42.61 ± 1.31^b
Body weight ([1]; Ex 2 G6 db/db, DMH i.p. 0.4 mg/g bw/day, dosing 6 weeks, week 12): 44.54 ± 1.63^b
Body weight ([1]; Ex 2 G6 db/db, DMH i.p. 0.4 mg/g bw/day, dosing 6 weeks, week 13): 45.69 ± 1.86^b
Body weight ([1]; Ex 2 G6 db/db, DMH i.p. 0.4 mg/g bw/day, dosing 6 weeks, week 14): 45.08 ± 1.89^b
Body weight ([1]; Ex 2 G6 db/db, DMH i.p. 0.4 mg/g bw/day, dosing 6 weeks, week 15): 47.29 ± 1.95^b
Body weight ([1]; Ex 2 G6 db/db, DMH i.p. 0.4 mg/g bw/day, dosing 6 weeks, week 16): 48.79 ± 1.95^b
Body weight ([1]; Ex 2 G6 db/db, DMH i.p. 0.4 mg/g bw/day, dosing 6 weeks, week 17): 48.99 ± 1.87^b
Body weight ([1]; Ex 2 G6 db/db, DMH i.p. 0.4 mg/g bw/day, dosing 6 weeks, week 18): 50.70 ± 1.87^b
Body weight ([1]; Ex 2 G6 db/db, DMH i.p. 0.4 mg/g bw/day, dosing 6 weeks, week 19): 53.56 ± 1.99^b
Body weight ([1]; Ex 3: db/db mice, daily dosing 3 weeks at doses of Table 10, Baseline): 29.3 ± 1^b
Body weight ([1]; Ex 3: db/db mice, daily dosing 3 weeks at doses of Table 10, Final): 38.3 ± 1^c
Body weight ([1]; Ex 3: db/db mice, daily dosing 3 weeks at doses of Table 10, Week 3): 33.5 ± 1^cd
Body weight ([1]; Ex 3: db/db mice, daily dosing 3 weeks at doses of Table 10, Week 6 (stopped for 3 weeks)): 35.1 ± 1^b
Body weight ([1]; Ex 3: db/db mice, daily dosing 3 weeks at doses of Table 10, Week 9 (stopped for 6 weeks)): 40.0 ± 1^c
OGTT AUC vs untreated mice (DB group) (db/db mice; Ex 1, week 3, P<0.05): significantly smaller
Glucose concentration in OGTT vs DB group (db/db mice; Ex 1, week 3, time points of 90 min and 120 min (FIG. 1)): significantly lower
OGTT AUC (db/db mice; Ex 1: db/db mice, ertapenem i.p. 0.41 mg/g bw/day, 3 weeks): 1298 ± 186
OGTT AUCs vs metformin-treated (G3) and untreated db/db mice (G2) (db/db mice; Ex 2, G4 and G5, weeks 6, 12, and 16, P<0.05): significantly smaller
Oral glucose tolerance of db/db mice after stop (db/db mice; Ex 2, after the treatment had been stopped for 10 weeks): effectively increased
Oral glucose tolerance (OGT) of db/db mice (db/db mice; Ex 2, most time points (ertapenem: weeks 6 and 12)): significantly increased
Level of OGTT (blood glucose) (db/db mice; Ex 2 G4 db/db, DMH i.p. 0.1 mg/g bw/day, dosing 6 weeks, Week 6, 0 min): 219 ± 36 mg/dL
Level of OGTT (blood glucose) (db/db mice; Ex 2 G4 db/db, DMH i.p. 0.1 mg/g bw/day, dosing 6 weeks, Week 6, 15 min): 866 ± 38^bc
Level of OGTT (blood glucose) (db/db mice; Ex 2 G4 db/db, DMH i.p. 0.1 mg/g bw/day, dosing 6 weeks, Week 6, 30 min): 671 ± 62 mg/dL
Level of OGTT (blood glucose) (db/db mice; Ex 2 G4 db/db, DMH i.p. 0.1 mg/g bw/day, dosing 6 weeks, Week 6, 60 min): 486 ± 57 mg/dL
Level of OGTT (blood glucose) (db/db mice; Ex 2 G4 db/db, DMH i.p. 0.1 mg/g bw/day, dosing 6 weeks, Week 6, 120 min): 286 ± 44^bc
Level of OGTT (blood glucose) (db/db mice; Ex 2 G4 db/db, DMH i.p. 0.1 mg/g bw/day, dosing 6 weeks, Week 12, 0 min): 154 ± 30^ab
Level of OGTT (blood glucose) (db/db mice; Ex 2 G4 db/db, DMH i.p. 0.1 mg/g bw/day, dosing 6 weeks, Week 12, 15 min): 866 ± 36 mg/dL
Level of OGTT (blood glucose) (db/db mice; Ex 2 G4 db/db, DMH i.p. 0.1 mg/g bw/day, dosing 6 weeks, Week 12, 30 min): 794 ± 60^bc
Level of OGTT (blood glucose) (db/db mice; Ex 2 G4 db/db, DMH i.p. 0.1 mg/g bw/day, dosing 6 weeks, Week 12, 60 min): 503 ± 67 mg/dL
Level of OGTT (blood glucose) (db/db mice; Ex 2 G4 db/db, DMH i.p. 0.1 mg/g bw/day, dosing 6 weeks, Week 12, 120 min): 372 ± 83 mg/dL
Level of OGTT (blood glucose) (db/db mice; Ex 2 G4 db/db, DMH i.p. 0.1 mg/g bw/day, dosing 6 weeks, Week 16, 0 min): 126 ± 43^ab
Level of OGTT (blood glucose) (db/db mice; Ex 2 G4 db/db, DMH i.p. 0.1 mg/g bw/day, dosing 6 weeks, Week 16, 15 min): 575 ± 44 mg/dL
Level of OGTT (blood glucose) (db/db mice; Ex 2 G4 db/db, DMH i.p. 0.1 mg/g bw/day, dosing 6 weeks, Week 16, 30 min): 609 ± 39^c
Level of OGTT (blood glucose) (db/db mice; Ex 2 G4 db/db, DMH i.p. 0.1 mg/g bw/day, dosing 6 weeks, Week 16, 60 min): 506 ± 52^c
Level of OGTT (blood glucose) (db/db mice; Ex 2 G4 db/db, DMH i.p. 0.1 mg/g bw/day, dosing 6 weeks, Week 16, 120 min): 270 ± 65^bd
Level of OGTT (blood glucose) (db/db mice; Ex 2 G4 db/db, DMH i.p. 0.1 mg/g bw/day, dosing 6 weeks, Week 18, 0 min): 263 ± 58 mg/dL
Level of OGTT (blood glucose) (db/db mice; Ex 2 G4 db/db, DMH i.p. 0.1 mg/g bw/day, dosing 6 weeks, Week 18, 15 min): 785 ± 57 mg/dL
Level of OGTT (blood glucose) (db/db mice; Ex 2 G4 db/db, DMH i.p. 0.1 mg/g bw/day, dosing 6 weeks, Week 18, 30 min): 894 ± 49 mg/dL
Level of OGTT (blood glucose) (db/db mice; Ex 2 G4 db/db, DMH i.p. 0.1 mg/g bw/day, dosing 6 weeks, Week 18, 60 min): 735 ± 47 mg/dL
Level of OGTT (blood glucose) (db/db mice; Ex 2 G4 db/db, DMH i.p. 0.1 mg/g bw/day, dosing 6 weeks, Week 18, 120 min): 447 ± 53 mg/dL
OGTT AUC (db/db mice; Ex 2 G4 db/db, DMH i.p. 0.1 mg/g bw/day, dosing 6 weeks, week 6): 1033 ± 87^b
OGTT AUC (db/db mice; Ex 2 G4 db/db, DMH i.p. 0.1 mg/g bw/day, dosing 6 weeks, week 12): 1096 ± 119^b
OGTT AUC (db/db mice; Ex 2 G4 db/db, DMH i.p. 0.1 mg/g bw/day, dosing 6 weeks, week 16): 902 ± 85^b
OGTT AUC (db/db mice; Ex 2 G4 db/db, DMH i.p. 0.1 mg/g bw/day, dosing 6 weeks, week 18): 1339 ± 80^b
Level of OGTT (blood glucose) (db/db mice; Ex 2 G5 db/db, DMH i.p. 0.2 mg/g bw/day, dosing 6 weeks, Week 6, 0 min): 166 ± 21 mg/dL

— patent publication US11419852B2, “Beta-lactam compounds or salts thereof for use in long-acting prevention or treatment of a glucose metabolism disorder” (GLYCOLYSIS BIOMED CO., LTD., priority 2019, dated 2022)
